Among the data in patent US20170137410A1, “FUSED CYCLOALKYL-PYRIMIDINE COMPOUNDS AND USES THEREOF” (Medivation Technologies, Inc., priority 2014, published 2017) are IC50 values, retold here.

For orientation: IC50 means the midpoint of a concentration-inhibition curve. Low readings indicate greater potency, high ones weaker potency.

Molecules are shown by their SMILES.

The target in the test is T1, FLT3 (ITD) (Homo sapiens, UniProt P36888).
T1 sequence (P36888 1-993): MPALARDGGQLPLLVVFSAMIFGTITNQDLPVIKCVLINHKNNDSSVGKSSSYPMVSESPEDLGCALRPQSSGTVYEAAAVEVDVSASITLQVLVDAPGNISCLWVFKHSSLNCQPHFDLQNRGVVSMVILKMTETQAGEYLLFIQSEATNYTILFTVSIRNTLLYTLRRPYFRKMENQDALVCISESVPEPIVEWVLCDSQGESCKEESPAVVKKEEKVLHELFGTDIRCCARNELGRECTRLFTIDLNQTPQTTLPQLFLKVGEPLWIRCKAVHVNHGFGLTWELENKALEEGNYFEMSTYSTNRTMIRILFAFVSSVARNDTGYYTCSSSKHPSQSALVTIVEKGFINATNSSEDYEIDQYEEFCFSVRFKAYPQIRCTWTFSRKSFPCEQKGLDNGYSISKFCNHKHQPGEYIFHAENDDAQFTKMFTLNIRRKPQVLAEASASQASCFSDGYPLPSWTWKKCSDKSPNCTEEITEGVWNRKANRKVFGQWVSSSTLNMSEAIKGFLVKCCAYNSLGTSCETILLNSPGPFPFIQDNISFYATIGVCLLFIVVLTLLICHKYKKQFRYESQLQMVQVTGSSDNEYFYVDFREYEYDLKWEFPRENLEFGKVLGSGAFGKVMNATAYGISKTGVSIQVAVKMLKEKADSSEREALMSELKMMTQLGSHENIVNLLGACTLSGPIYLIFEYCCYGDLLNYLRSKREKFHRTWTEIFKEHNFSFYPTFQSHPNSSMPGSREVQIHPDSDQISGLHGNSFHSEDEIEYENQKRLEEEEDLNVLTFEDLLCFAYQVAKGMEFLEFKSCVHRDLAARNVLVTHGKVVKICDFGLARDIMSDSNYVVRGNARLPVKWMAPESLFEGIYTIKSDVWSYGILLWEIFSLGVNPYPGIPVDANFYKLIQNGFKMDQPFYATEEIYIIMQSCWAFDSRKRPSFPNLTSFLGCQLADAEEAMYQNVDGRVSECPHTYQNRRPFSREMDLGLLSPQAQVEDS
As to the kind of experiment: HotSpot kinase assay against FLT3 (ITD). The test is classed as biochemical. The note with it: HotSpot 33P assay, ATP 10 μM. On the procedure: Kinase assays were performed using test compounds against a panel of FLT3 kinases: FLT3; FLT3 (D835Y); and FLT3 (ITD). Compounds were prepared as 10 mM stock solutions in DMSO prior to use in the assay. Each compound was tested at 10 concentrations with three-fold serial dilution starting at 1 μM against the three kinases. The control compound, staurosporine, was tested at 10 concentrations with four-fold serial dilution starting at 20 μM. IC50 values and curve fits were obtained using Prism (GraphPad Software). The screening was performed using the “HotSpot” assay platform. The assay measures the conversion of a peptide substrate to ^33P-labelled phosphorylated product. Briefly, specific kinase/substrate pairs along with required cofactors were prepared in reaction buffer. Specifically, the substrate was prepared in reaction buffer (20 mM Hepes, pH 7.5; 10 mM MgCl2; 1 mM EGTA; 0.02% Brij35; 0.02 mg/mL BSA; 0.1 mM Na3VO4; 2 mM DTT; 1% DMSO), followed by delivery of any required cofactor to the resulting substrate solution. The corresponding kinase was delivered into the substrate solution and the reaction mixture was mixed gently. Compound was delivered into the reaction mixture, followed 15-20 min later by addition of a mixture of ATP (Sigma, St. Louis Mo.) and ^33P ATP (specific activity 0.01 μCi/μL final; Perkin Elmer, Waltham, Mass.) to a final concentration of 10 μM to initiate the reaction. Reactions were carried out at RT for 120 min, followed by spotting of the reactions onto P81 ion exchange filter paper (Whatman #3698-915; Whatman Inc., Piscataway, N.J.). Unbound phosphate was removed by extensive washing of filters in 0.75% phosphoric acid. […] The percent of enzyme inhibition was calculated based on the percent of remaining kinase activity. IC50 values were determined.
As to `CCN(C(=O)[C@@H]1CCCN1c1nc2c(c(Nc3cc(C(C)(C)C)[nH]n3)n1)CCC2)c1nccs1` [144b, (S)-1-(4-((5-(tert-butyl)-1 H-pyrazol-3-yl)amino)-6,7-dihydro-5H-cyclopenta[d]pyrimidin-2-yl)-N-ethyl-N-(thiazol-2-yl)pyrrolidine-2-carboxamide], the IC50 was > 1000 nM.
For the molecule `CCC(=O)N1CCN(C(=O)[C@@H]2CCCN2c2nc3c(c(Nc4cc(C5CCCC5)[nH]n4)n2)CCC3)CC1` [143b, (S)-1-(4-((4-((5-cyclopentyl-1H-pyrazol-3-yl)amino)-6,7-dihydro-5H-cyclopenta[d]pyrimidin-2-yl)prolyl)piperazin-1-yl)propan-1-one], the concentration for half-maximal inhibition (IC50) is 310 nM.
To `CCN(C(=O)[C@@H]1CCCN1c1nc2c(c(Nc3cc(C(C)C)[nH]n3)n1)CCC2)c1nccs1` [145b, (S)—N-ethyl-1-(4-((5-isopropyl-1H-pyrazol-3-yl)amino)-6,7-dihydro-5H-cyclopenta[d]pyrimidin-2-yl)-N-(thiazol-2-yl)pyrrolidine-2-carboxamide] belongs 435 nM; to `CC(C)(C)c1cc(Nc2nc(N3CCC[C@@H]3C(=O)N3CCC(F)(F)CC3)nc3c2CCC3)n[nH]1` [142a, (R)-(1-(4-((5-(tert-butyl)-1H-pyrazol-3-yl)amino)-6,7-dihydro-5H-cyclopenta[d]pyrimidin-2-yl)pyrrolidin-2-yl)(4,4-difluoropiperidin-1-yl)methanone], > 1000 nM.
Then `CC(C)c1cc(Nc2nc(N3CCC[C@H]3C(=O)N(C)c3nccs3)nc3c2CCC3)n[nH]1` [68b, (S)-1-(4-((5-isopropyl-1H-pyrazol-3-yl)amino)-6,7-dihydro-5H-cyclopenta[d]pyrimidin-2-yl)-N-methyl-N-(thiazol-2-yl)pyrrolidine-2-carboxamide], with 167 nM; and `CC1(C(=O)N2CCC(F)(F)CC2)CCCN1c1nc2c(c(Nc3cc(C4CCCC4)[nH]n3)n1)CCC2` (racemic) [compound 146, (1-(4-((5-cyclopentyl-1H-pyrazol-3-yl)amino)-6,7-dihydro-5H-cyclopenta[d]pyrimidin-2-yl)-2-methylpyrrolidin-2-yl)(4,4-difluoropiperidin-1-yl)methanone], with 1480 nM; and `CC(C)(C)c1cc(Nc2nc(N3CCC[C@H]3C(=O)N3CCC(F)(F)CC3)nc3c2CCC3)n[nH]1` [142b, (S)-(1-(4-((5-(tert-butyl)-1H-pyrazol-3-yl)amino)-6,7-dihydro-5H-cyclopenta[d]pyrimidin-2-yl)pyrrolidin-2-yl)(4,4-difluoropiperidin-1-yl)methanone], with > 1000 nM.
To `CCC(=O)N1CCN(C(=O)[C@H]2CCCN2c2nc3c(c(Nc4cc(C5CCCC5)[nH]n4)n2)CCC3)CC1` [143a, 1-(4-((4-((5-cyclopentyl-1H-pyrazol-3-yl)amino)-6,7-dihydro-5H-cyclopenta[d]pyrimidin-2-yl)-D-prolyl)piperazin-1-yl)propan-1-one] belongs 13.7 nM.
